Here are results for one compound from EP1234508A1, “Antiprotozoal methods, compositions and feedstuffs” (UNIVERSITEIT GENT, priority 2001, dated 2002).

The assay in a line: Onset of egg laying and egg weight in hens treated via drinking water, Example 3. It counts as in vivo. On the procedure: The end of the development of the reproductive organ of laying hens starts on the age of 15 weeks and continues during 7 weeks. 10 laying hens were treated with L-arginine via drinking water from the age of 15 weeks till the age of 21 weeks and 10 laying hens were used as a control group. L-arginine was dosed at 15 mg per kg weight per day. L-arginine free base or a L-arginine salt such as hydrochloride may be given daily in a dose of about 5 - 200 mg up to 5 to about 1000 mg per kg bodyweight per day. Light schemes were taken into account: 8 hours light at the age of 15 and 16 weeks old, 9 hours at 17 weeks, 10 hours at 18 weeks, 11 hours at 19 weeks, 12 hours at 20 weeks and 13 hours at 21 weeks old. The treatment with L-arginine was started on the age of 15 weeks. After 40 days of treatment, 3 of 10 chickens treated with L-arginine started laying while one chicken of the control group started laying four days later (Fig. 5). It is unexpected that the onset of egg-laying is earlier than in the control group which is a commercially important aspect of the present invention. The average weight of the eggs (number of eggs ≥ 3) was above 50 g after 46 days in the treated group while in the control group after 54 days the average weight of at least 3 eggs was above 50 g (Fig 6). Again this improvement is unexpected and is of commercial value.

As for `N=C(N)NCCCC(N)C(=O)O` [L-arginine, 2-amino-5-guanidinovaleric acid], the chickens started laying (after 40 days of treatment, 15 mg per kg weight per day via drinking water from the age of 15 weeks, Fig. 5) is 3 of 10. Besides, the “average weight of the eggs (number of eggs ≥ 3)” value (after 46 days in the treated group, 15 mg per kg weight per day via drinking water, Fig. 6) was “above 50 g”.
